The record followed here is patent publication US11352340B2, “Pyridine and pyridimine compounds as PI3K-gamma inhibitors” (Incyte Corporation, priority 2016, dated 2022).

Counter-ions that a name gives are not always drawn. Like-named read-outs stand apart in the source and are kept apart here.

Assay [1] deals with Phosphorylated Ribosomal Protein S6 (RPS6) in THP-1 cells. Kind of assay: THP-1 RPS6 ELISA Assay. Format: cell-based, Human. Particulars: MCP-1 stimulated, phospho-RPS6 ELISA, read-out: THP p-RPS6 ELISA IC50. The gist of the method: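 Phospho-RPS6 in lysates measured by ELISA at 450 nm, corrected at 540 nm, after MCP-1 challenge (10 nM, 15 min) of THP-1 cells that were starved overnight and exposed to test compound for 2 h at 37° C, 2×10^5 cells/well. Curve fit of percent inhibition gives IC50.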
(An ELISA detects its analyte on a solid surface through an enzyme-linked reagent.)

Assay [2] deals with PI3Kγ (p110γ) Recombinant Human Protein (Homo sapiens (Human), UniProt P48736). Kind of assay: PI3K-γ Scintillation Proximity Assay. Format: biochemical. The following applies: read-out: PI3K-gamma SPA IC50. The gist of the method:
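Radiometric SPA: reaction at room temperature for 120 min using 2 μM ATP with [γ-33P]ATP tracer, 20 μM PIP2 substrate and 13 nM human PI3Kγ (MOPS pH 6.7, MgCl2, DTT, CHAPS; 2% DMSO). EDTA quench with WGA beads, scintillation count, and IC50 fit of percent-of-control activity.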

For assay [3], the target named is PI3Kδ (p110δ/p85α) Recombinant Human Protein (Homo sapiens (Human), UniProt O00329). Kind of assay: PI3Kδ Scintillation Proximity Assay. Format: biochemical. The following applies: read-out: PI3K-delta SPA IC50. The gist of the method: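 IC50 was fitted to percent solvent-control activity from SPA scintillation counts after WGA bead capture of 33P-labelled lipid product. Reaction: 120 min, room temperature, 3.4 nM p110δ/p85α, 20 μM PIP2, 2 μM ATP with tracer, MOPS pH 6.7 buffer containing MgCl2, DTT, CHAPS, 2% DMSO.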
PI3Kδ (p110δ/p85α) Recombinant Human Protein, sequence (O00329 whole entry): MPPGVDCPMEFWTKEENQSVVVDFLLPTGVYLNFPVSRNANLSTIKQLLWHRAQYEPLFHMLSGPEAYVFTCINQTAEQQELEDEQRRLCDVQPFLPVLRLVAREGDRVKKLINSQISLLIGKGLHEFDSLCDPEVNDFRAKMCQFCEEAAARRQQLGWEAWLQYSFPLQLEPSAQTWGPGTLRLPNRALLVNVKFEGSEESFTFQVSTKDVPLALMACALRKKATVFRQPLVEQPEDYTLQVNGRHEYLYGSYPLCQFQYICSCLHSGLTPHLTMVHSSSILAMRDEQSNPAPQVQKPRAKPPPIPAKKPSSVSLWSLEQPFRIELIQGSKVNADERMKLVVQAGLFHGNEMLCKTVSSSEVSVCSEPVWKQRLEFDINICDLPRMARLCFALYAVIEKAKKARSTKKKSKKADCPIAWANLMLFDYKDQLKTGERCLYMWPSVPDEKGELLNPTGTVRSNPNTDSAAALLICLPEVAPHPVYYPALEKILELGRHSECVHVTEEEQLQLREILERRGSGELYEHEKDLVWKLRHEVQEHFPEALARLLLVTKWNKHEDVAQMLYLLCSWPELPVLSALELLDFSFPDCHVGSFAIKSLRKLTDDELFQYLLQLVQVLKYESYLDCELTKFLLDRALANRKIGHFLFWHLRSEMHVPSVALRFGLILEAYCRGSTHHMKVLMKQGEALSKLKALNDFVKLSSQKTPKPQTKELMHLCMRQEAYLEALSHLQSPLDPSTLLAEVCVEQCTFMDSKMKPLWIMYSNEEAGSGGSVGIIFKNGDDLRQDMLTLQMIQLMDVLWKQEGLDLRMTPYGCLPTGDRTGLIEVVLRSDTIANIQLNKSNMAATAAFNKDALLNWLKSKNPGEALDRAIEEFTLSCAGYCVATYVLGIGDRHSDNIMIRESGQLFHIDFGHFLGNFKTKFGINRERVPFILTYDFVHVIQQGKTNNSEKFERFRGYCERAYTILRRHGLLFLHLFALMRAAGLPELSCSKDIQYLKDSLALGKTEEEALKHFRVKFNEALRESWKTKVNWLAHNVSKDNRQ
PI3Kδ (p110δ/p85α) Recombinant Human Protein, sequence (P27986 whole entry partner): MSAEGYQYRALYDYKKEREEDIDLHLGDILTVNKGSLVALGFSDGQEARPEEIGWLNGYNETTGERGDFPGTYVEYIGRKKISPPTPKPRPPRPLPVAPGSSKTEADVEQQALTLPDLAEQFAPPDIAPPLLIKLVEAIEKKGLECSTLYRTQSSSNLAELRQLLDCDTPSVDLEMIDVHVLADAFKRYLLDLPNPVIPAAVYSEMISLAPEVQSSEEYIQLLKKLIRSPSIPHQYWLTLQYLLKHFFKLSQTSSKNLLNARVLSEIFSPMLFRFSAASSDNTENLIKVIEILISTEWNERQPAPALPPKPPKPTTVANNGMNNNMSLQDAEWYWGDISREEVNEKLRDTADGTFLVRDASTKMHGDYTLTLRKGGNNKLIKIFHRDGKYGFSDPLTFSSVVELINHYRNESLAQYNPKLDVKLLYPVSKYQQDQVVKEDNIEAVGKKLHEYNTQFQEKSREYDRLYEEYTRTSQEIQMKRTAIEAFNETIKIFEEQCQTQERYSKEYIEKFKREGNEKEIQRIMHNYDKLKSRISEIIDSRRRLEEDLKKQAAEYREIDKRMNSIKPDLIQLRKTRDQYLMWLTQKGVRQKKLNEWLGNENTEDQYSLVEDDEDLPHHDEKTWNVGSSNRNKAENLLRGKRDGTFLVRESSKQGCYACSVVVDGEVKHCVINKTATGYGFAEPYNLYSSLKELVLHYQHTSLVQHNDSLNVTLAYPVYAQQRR

PI3Kγ (p110γ) Recombinant Human Protein, sequence (P48736 whole entry): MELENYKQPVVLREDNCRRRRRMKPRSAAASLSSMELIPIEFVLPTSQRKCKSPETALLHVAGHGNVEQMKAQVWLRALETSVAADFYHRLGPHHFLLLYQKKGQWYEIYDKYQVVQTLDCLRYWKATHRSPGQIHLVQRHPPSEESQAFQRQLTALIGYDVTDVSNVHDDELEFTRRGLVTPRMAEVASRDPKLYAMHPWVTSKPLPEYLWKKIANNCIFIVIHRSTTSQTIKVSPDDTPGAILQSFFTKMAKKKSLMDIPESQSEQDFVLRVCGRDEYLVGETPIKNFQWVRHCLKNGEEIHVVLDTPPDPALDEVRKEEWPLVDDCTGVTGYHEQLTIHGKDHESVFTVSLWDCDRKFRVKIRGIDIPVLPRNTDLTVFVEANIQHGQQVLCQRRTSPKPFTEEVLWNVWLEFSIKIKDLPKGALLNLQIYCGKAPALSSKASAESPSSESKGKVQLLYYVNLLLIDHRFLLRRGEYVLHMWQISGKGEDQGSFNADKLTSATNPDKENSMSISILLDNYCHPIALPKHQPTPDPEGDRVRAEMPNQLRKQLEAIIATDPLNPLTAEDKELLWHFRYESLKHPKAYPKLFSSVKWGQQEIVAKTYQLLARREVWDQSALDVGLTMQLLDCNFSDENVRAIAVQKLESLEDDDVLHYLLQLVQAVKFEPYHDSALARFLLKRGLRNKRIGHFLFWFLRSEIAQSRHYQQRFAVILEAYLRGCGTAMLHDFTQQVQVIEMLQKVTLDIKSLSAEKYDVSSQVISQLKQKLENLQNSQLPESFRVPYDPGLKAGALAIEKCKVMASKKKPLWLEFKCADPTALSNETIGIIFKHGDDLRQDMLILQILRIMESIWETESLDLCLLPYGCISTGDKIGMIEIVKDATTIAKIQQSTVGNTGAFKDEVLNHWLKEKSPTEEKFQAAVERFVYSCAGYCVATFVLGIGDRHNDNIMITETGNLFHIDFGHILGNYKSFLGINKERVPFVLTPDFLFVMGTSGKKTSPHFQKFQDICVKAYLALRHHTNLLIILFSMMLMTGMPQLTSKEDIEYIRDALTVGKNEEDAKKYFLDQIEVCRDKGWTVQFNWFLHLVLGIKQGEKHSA

With `CS(=O)(=O)c1cncc(-c2ccnc(-c3ncc(C4CCCC4)[nH]3)c2)c1` [Example 114, 2′-(5-Cyclopentyl-1H-imidazol-2-yl)-5-(methylsulfonyl)-3,4′-bipyridine trifluoroacetate salt], the IC50 was not above 300 nM in assay [1] (Homo sapiens), not above 50 nM in assay [2] and not above 50 nM in assay [3].

Regarding `Cc1nc(-c2cc(-c3cncc(C(=O)N4CCC5(CC5)C4)c3)ccn2)[nH]c1C` [Example 212, 5-(5-Azaspiro[2.4]hept-5-ylcarbonyl)-2′-(4,5-dimethyl-1H-imidazol-2-yl)-3,4′-bipyridine trifluoroacetate salt], the figures for the IC50 in assay [1] (Homo sapiens), in assay [2] and in assay [3] were not above 300 nM, not above 50 nM and not above 50 nM, respectively.

Take `COc1cncc(-c2ccnc(-c3ncc(C(C)(C)C)[nH]3)c2)c1` [Example 88, 2′-(5-tert-Butyl-1H-imidazol-2-yl)-5-methoxy-3,4′-bipyridine trifluoroacetate salt]: the figures for the IC50 in assay [1] (Homo sapiens), in assay [2] and in assay [3] were more than 5000 nM, not above 500 nM and not above 50 nM, respectively.

`Cc1n[nH]cc1-c1ccnc(-c2ncc(-c3ccccc3)[nH]2)c1` [Example 9, 4-(3-Methyl-1H-pyrazol-4-yl)-2-(5-phenyl-1H-imidazol-2-yl)pyridine trifluoroacetate salt]: the IC50 is 1000 to 5000 nM in assay [1] (Homo sapiens), not above 100 nM in assay [2] and not above 500 nM in assay [3].

For the molecule `Cc1nc(-c2cc(-c3cncc(C(=O)N4CCC4)c3)ccn2)[nH]c1C` [Example 191, 5-(Azetidin-1-ylcarbonyl)-2′-(4,5-dimethyl-1H-imidazol-2-yl)-3,4′-bipyridine trifluoroacetate salt], the IC50 in assay [1] (Homo sapiens) was not above 300 nM; in assay [2] it was not above 50 nM; in assay [3] it was not above 50 nM.

`COc1cncc(-c2ccnc(-c3ncc(C(F)(F)F)[nH]3)c2)c1` [Example 79, 5-Methoxy-2′-(5-(trifluoromethyl)-1H-imidazol-2-yl)-3,4′-bipyridine trifluoroacetate salt]: the IC50 in assay [1] (Homo sapiens) is more than 5000 nM; in assay [2] it was not above 50 nM; in assay [3] it was not above 500 nM.

For the molecule `Cc1[nH]c(-c2cc(-c3cncc(N4CCOCC4)c3)ccn2)nc1C(=O)N[C@H]1CCN(Cc2ccccc2)C1` [Example 279, N-[(3S)-1-Benzylpyrrolidin-3-yl]-5-methyl-2-(5-morpholin-4-yl-3,4′-bipyridin-2′-yl)-1H-imidazole-4-carboxamide trifluoroacetate salt], the figures for the IC50 in assay [1] (Homo sapiens), in assay [2] and in assay [3] were not above 300 nM, not above 100 nM and not above 50 nM, respectively.

`CC(C)c1cnc(-c2cc(-c3cncc(S(C)(=O)=O)c3)ccn2)[nH]1` [Example 111, 2′-(5-Isopropyl-1H-imidazol-2-yl)-5-(methylsulfonyl)-3,4′-bipyridine trifluoroacetate salt]: the IC50 in assay [1] (Homo sapiens) is 300 to 1000 nM; in assay [2] it was not above 50 nM; in assay [3], not above 50 nM.

As to `CS(=O)(=O)c1cncc(-c2ccnc(-c3ncc(Cc4ccccc4)[nH]3)c2)c1` [Example 115, 2′-(5-Benzyl-1H-imidazol-2-yl)-5-(methylsulfonyl)-3,4′-bipyridine trifluoroacetate salt], the IC50 in assay [1] (Homo sapiens) is not above 300 nM; in assay [2], not above 50 nM; in assay [3], not above 50 nM.

On to `Cc1nc(-c2cc(-c3cncc(NC(C)c4ccccc4)c3)ccn2)[nH]c1C` (racemic) [Example 145C, 2′-(4,5-Dimethyl-1H-imidazol-2-yl)-N-(1-phenylethyl)-3,4′-bipyridin-5-amine trifluoroacetate salt], for which the IC50 was not above 300 nM in assay [1] (Homo sapiens), not above 50 nM in assay [2] and not above 50 nM in assay [3].

For `Cc1nc(-c2cc(-c3cncc(C(=O)N4CC[C@H]5CCCC[C@@H]5C4)c3)ccn2)[nH]c1C` [Example 187, 2′-(4,5-Dimethyl-1H-imidazol-2-yl)-5-[(4aR,8aS)-octahydroisoquinolin-2(1H)-ylcarbonyl]-3,4′-bipyridine trifluoroacetate salt], the IC50 was 300 to 1000 nM in assay [1] (Homo sapiens), not above 50 nM in assay [2] and not above 100 nM in assay [3].

With `Cc1[nH]c(-c2cc(-c3cncc(N4CCOCC4)c3)ccn2)nc1C(=O)NC1CCOCC1` [Example 269, 5-Methyl-2-(5-morpholin-4-yl-3,4′-bipyridin-2′-yl)-N-(tetrahydro-2H-pyran-4-yl)-1H-imidazole-4-carboxamide trifluoroacetate salt], the IC50 was 300 to 1000 nM in assay [1] (Homo sapiens), not above 50 nM in assay [2] and not above 50 nM in assay [3].

In the case of `COC(=O)c1nc(-c2cc(-c3cncc(N4CCOCC4)c3)ccn2)[nH]c1C` [Example 125, Methyl 5-methyl-2-(5-morpholin-4-yl-3,4′-bipyridin-2′-yl)-1H-imidazole-4-carboxylate], the results for the IC50 in assay [1] (Homo sapiens), in assay [2] and in assay [3] were 300 to 1000 nM, not above 100 nM and not above 50 nM, respectively.

`COc1cncc(-c2ccnc(-c3nc(C)c(C)[nH]3)c2)c1` [Example 76, 2′-(4,5-Dimethyl-1H-imidazol-2-yl)-5-methoxy-3,4′-bipyridine]: the IC50 in assay [1] (Homo sapiens) was 300 to 1000 nM; in assay [2], not above 50 nM; in assay [3] it was not above 100 nM.

On to `Cc1nc(-c2cc(-c3cncc(C(=O)NC4CCOCC4)c3)ccn2)[nH]c1C` [Example 160, 2′-(4,5-Dimethyl-1H-imidazol-2-yl)-N-(tetrahydro-2H-pyran-4-yl)-3,4′-bipyridine-5-carboxamide trifluoroacetate salt], for which the IC50 in assay [1] (Homo sapiens) was 1000 to 5000 nM; in assay [2], not above 50 nM; in assay [3] it was not above 500 nM.

For `Cc1[nH]c(-c2cc(-c3cncc(S(C)(=O)=O)c3)ccn2)nc1C(=O)N1CC[C@@H](O)C1` [Example 245], the IC50 is more than 5000 nM in assay [1], not above 50 nM in assay [2] and not above 50 nM in assay [3].

As to `Cc1[nH]c(-c2cc(-c3cnn(Cc4ccc(Cl)cc4)c3)ccn2)nc1C#N` [Example 297, 2-{4-[1-(4-Chlorobenzyl)-1H-pyrazol-4-yl]pyridin-2-yl}-5-methyl-1H-imidazole-4-carbonitrile Trifluoroacetate Salt], the results for the IC50 in assay [1] (Homo sapiens), in assay [2] and in assay [3] were more than 5000 nM, not above 50 nM and more than 500 nM, respectively.

`Clc1ccc(Cn2cc(-c3ccnc(-c4ncc(-c5ccccc5)[nH]4)c3)cn2)cc1` [Example 1, 4-[1-(4-Chlorobenzyl)-1H-pyrazol-4-yl]-2-(5-phenyl-1H-imidazol-2-yl)pyridine Trifluoroacetate Salt]: the results for the IC50 in assay [1] (Homo sapiens), in assay [2] and in assay [3] were more than 5000 nM, not above 50 nM and more than 500 nM, respectively.

Take `Cc1nc(-c2cc(-c3cncc(Nc4ccccc4)c3)ccn2)[nH]c1C` [Example 233, 2′-(4,5-Dimethyl-1H-imidazol-2-yl)-N-phenyl-3,4′-bipyridin-5-amine]: the IC50 is 1000 to 5000 nM in assay [1] (Homo sapiens), not above 50 nM in assay [2] and not above 500 nM in assay [3].

On to `Cc1[nH]c(-c2cc(-c3cncc(S(C)(=O)=O)c3)ccn2)nc1C(=O)NC1CCOCC1` [Example 254, 5-Methyl-2-[5-(methylsulfonyl)-3,4′-bipyridin-2′-yl]-N-(tetrahydro-2H-pyran-4-yl)-1H-imidazole-4-carboxamide trifluoroacetate salt], for which the IC50 in assay [1] (Homo sapiens) is not above 300 nM; in assay [2] it was not above 50 nM; in assay [3] it was not above 50 nM.
